Source: ChEMBL document CHEMBL3045404, “Structure-Activity Relationships of 2-Chloropyridine-3-carboxamide Fungicides” (J Pestic Sci, 1992)

Experiments:
Rhizoctonia solani = experiment: Antifungal activity against Rhizoctonia solani infested in rice seedling incubated for 40 hr in moist chamber followed by incubation for 3 days in greenhouse conditions; assay type: functional, organism-based
Botrytis cinerea = experiment: Antifungal activity against Botryotinia fuckeliana infested in cucumber seedling cotyledons after 4 days by pot test; assay type: functional

SMILES | EC50 (Rhizoctonia solani) [µM] | pEC90 (Botrytis cinerea)
O=C(Nc1ccccc1)c1cccnc1Cl | 1000 | 2.2
O=C(Nc1cccc2c1CCC2)c1cccnc1Cl | 692 | 2.68
CC1CCc2c(NC(=O)c3cccnc3Cl)cccc21 (stereo unspecified) | 52.5 | 3.03
CC1OCc2cccc(NC(=O)c3cccnc3Cl)c21 (stereo unspecified) | 525 | 2.93
CCOc1c(NC(=O)c2cccnc2Cl)cccc1C(C)C | 112 | 3.32
CC1Oc2cccc(NC(=O)c3cccnc3Cl)c2C1C (stereo unspecified) | 631 | <2.2
CC1CC(C)(C)c2cccc(NC(=O)c3cccnc3Cl)c21 (stereo unspecified) | 7.76 | 4.7
CC1(C)CCc2c(NC(=O)c3cccnc3Cl)cccc21 | 28.8 | 2.97
CC1SCc2cccc(NC(=O)c3cccnc3Cl)c21 (stereo unspecified) | 933 | 2.93
CC1OC(C)(C)c2cccc(NC(=O)c3cccnc3Cl)c21 (stereo unspecified) | 14.1 | 3.93
CC1(C)Oc2cccc(NC(=O)c3cccnc3Cl)c2O1 | 759 | 2.76
CCc1ccccc1NC(=O)c1cccnc1Cl | 2000 | 2.57
CCC1CC(C)(C)c2cccc(NC(=O)c3cccnc3Cl)c21 (stereo unspecified) | 7.24 | 4.75
CC1(C)Cc2cccc(NC(=O)c3cccnc3Cl)c2O1 | 214 | 3.84
CC1(C)OCc2cccc(NC(=O)c3cccnc3Cl)c2O1 | 1450 | 3.29
O=C(Nc1cccc2c1OCC2)c1cccnc1Cl | 1620 | <2.2
CCCCC1(CC)Cc2cccc(NC(=O)c3cccnc3Cl)c2O1 (stereo unspecified) | 1550 | 3.04

SMILES | EC50 (Rhizoctonia solani) [µM] | pEC90 (Botrytis cinerea)
CC1Cc2cccc(NC(=O)c3cccnc3Cl)c2C1 (stereo unspecified) | 692 | 3.11
CC1(C)CCc2cccc(NC(=O)c3cccnc3Cl)c2O1 | 1450 | 3.66
CCc1c(C)cccc1NC(=O)c1cccnc1Cl | 724 | 2.96
CC(C)c1ccccc1NC(=O)c1cccnc1Cl | 1510 | 3.19
CC(C)Oc1cccc(NC(=O)c2cccnc2Cl)c1 | 57.5 | <2.2
CCC1(C)Oc2c(NC(=O)c3cccnc3Cl)cccc2C(C)O1 (stereo unspecified) | 13.2 | 3.57
Cc1oc2cccc(NC(=O)c3cccnc3Cl)c2c1C | 603 | <2.2
CCc1cccc(NC(=O)c2cccnc2Cl)c1 | 158 | <2.2
C=C(C)c1ccccc1NC(=O)c1cccnc1Cl | 1170 | 3.78
CCC1CC(C)(CC)c2cccc(NC(=O)c3cccnc3Cl)c21 (stereo unspecified) | 33.9 | 4.58
O=C(Nc1ccccc1-c1ccccc1)c1cccnc1Cl | > 6310 | 2.8
CCOc1ccccc1NC(=O)c1cccnc1Cl | 1100 | 2.48
CCC1(CC)CCc2cccc(NC(=O)c3cccnc3Cl)c2O1 | 1150 | 4.41
CCOc1cccc(NC(=O)c2cccnc2Cl)c1 | 85.1 | <2.2
CCC1OC(C)(C)c2cccc(NC(=O)c3cccnc3Cl)c21 (stereo unspecified) | 12.3 | 3.55
CC1CCc2cccc(NC(=O)c3cccnc3Cl)c21 (stereo unspecified) | 631 | 4.15
